Experiment [1] concerns Wnt/β-catenin signaling (β-catenin activity) in HEK293 cell line. The experiment is described as follows: Cell-based Wnt agonist screening, TCF luciferase reporter, HEK293 (TCF-FL). On the set-up: species or system human. As to conditions: Homo sapiens, HEK293, 24 h, % of LiCl (20 mM), 24 h, read-out: Max. Activity (%); for Emax at 120 µM: Conc. 120 μM; for Emax at 30 µM: Conc. 30 μM. The text has this: (§1) In order to measure the in vitro activity of compounds of the present invention, two human cancer cell lines, HEK293 and SW480, which have intact Wnt signaling and show APC gene mutation in the Wnt signaling pathway, respectively, were used.
(§2) For evaluating the activity of wnt/β-catenin signaling in the cancer cell lines, gene as illustrated in FIG. 1 having β-catenin-binding sites of the Tcf/Lef transcriptional control protein (5 sites of TCF, 5X TCF) and having a fire fly luficerase as a marker protein ascertainable the activity of 5X TCF was introduced into the cells. Treatment with G418 led monoclones of the cell lines, in which the genes were permanently expressed, so as to construct a cell-based Wnt agonist screening system. […] For comparison with the activity of the isoxazole derivatives as Wnt agonists, lithium chloride (LiCl), acting as a positive control for the cell-based Wnt agonist screening system, was used to determine the expression level of the luciferase, and the results are shown in FIG. 3.
(§3) The cell lines, in which a cell-based Wnt agonist screening system was constructed, were cultured in RPMI 1640 media supplemented with penicillin-streptomycin (100 Units/mL) and heat-inactivated 5% fetal bovine serum under standard culture conditions (5% CO2, 37° C., 100% relative humidity). […] The suspension was diluted with the same medium to adjust the cell count to 8,000˜15,000 cells per well and was moved then in a 96-well microtiter plate. After being incubated for 24 hrs, the cells were treated with various concentrations of the isoxazole derivatives synthesized in Preparation Examples. Incubation for an additional 24 hours was followed by the quantitative analysis of luciferase activity using a Luciferase Assay kit (Promega, U.S.A.) according to the protocol described in the manual provided by the manufacturer. Data on the activities of the isoxazole derivatives thus synthesized are given in Tables 34 to 43, and are expressed as percentages relative to the activity of the positive control LiCl (20 mM), a well-known agonist of Wnt signaling.
For orientation: Reporter assays use an easily measured gene product as a stand-in for the process of interest.

Experiment [2] concerns Wnt/β-catenin signaling (β-catenin activity) in SW480 cell line. Put plainly: Cell-based Wnt agonist screening, TCF luciferase reporter, SW480 (TCF-FL). Details: species or system human. Conditions: Homo sapiens, % of LiCl (20 mM), 24 h, read-out: Max. Activity (%); for Emax at 120 µM: Con. 120 μM; for Emax at 30 µM: Con. 30 μM; for Emax at 60 µM: Con. 60 μM.
From the text: as §1, §2, §3

The structures appear in SMILES notation.

With `Cc1cn(CCNC(=O)c2cc(-c3ccco3)on2)cn1` [Derivative (37), 5-furan-2-yl-isoxazole-3-carboxylic acid [2-(4-methyl-imidazol-1-yl)-ethyl]-amide], the Emax at 120 µM in experiment [1] was found to be 44%; in experiment [2] it was 296%.

For `O=C(NCCCn1ccnc1)c1cc(-c2ccncc2)on1` [Derivative (77), 5-pyridin-4-yl-isoxazole-3-carboxylic acid (3-imidazol-1-yl-propyl)-amide], the Emax at 30 µM in experiment [1] and in experiment [2] was less than 20% throughout.

As to `O=C(NCc1ccccc1)c1cc(-c2ccco2)on1` [Derivative (4), 5-furan-2-yl-isoxazole-3-carboxylic acid benzylamide], the Emax at 30 µM in experiment [1] and in experiment [2] was less than 20% each time.

On to `O=C(NCCn1cncn1)c1cc(-c2ccc(F)cc2)on1` [Derivative (88), 5-(4-fluoro-phenyl)-isoxazole-3-carboxylic acid (2-[1,2,4]triazol-1-yl-ethyl)-amide], for which the Emax at 120 µM in experiment [1] and in experiment [2] was 600% in each case.

Take `O=C(NCCc1ccc(Br)cc1)c1cc(-c2ccco2)on1` [Derivative (25), 5-furan-2-yl-isoxazole-3-carboxylic acid [2-(4-bromo-phenyl)-ethyl]-amide]: in experiment [1], the Emax at 30 µM was less than 20%. Also, in experiment [2], the Emax at 120 µM turned out to be 223%.

Consider `O=C(NCCCn1ccnc1)c1cc(-c2cccnc2)on1` [Derivative (76), 5-pyridin-3-yl-isoxazole-3-carboxylic acid (3-imidazol-1-yl-propyl)-amide], for which the Emax at 30 µM in experiment [1] and in experiment [2] was less than 20% in each case.

Take `Cc1c(C(=O)NCCCn2ccnc2)noc1-c1ccco1` [Derivative (65), 5-furan-2-yl-4-methyl-isoxazole-3-carboxylic acid (3-imidazol-1-yl-propyl)-amide]: the Emax at 30 µM in experiment [1] and in experiment [2] was less than 20% in each case.

For the compound `COC(=O)c1cn(CCCNC(=O)c2cc(-c3ccco3)on2)cn1` [Derivative (58), 1-{3-[(5-furan-2-yl-isoxazole-3-carbonyl)-amino]-propyl}-1H-imidazole-4-carboxylic acid methyl ester], the Emax at 30 µM is less than 20% in experiment [1] and 270% in experiment [2].

`O=C(NCCn1ccnn1)c1cc(-c2ccc(F)cc2)on1` [Derivative (90), 5-(4-fluoro-phenyl)-isoxazole-3-carboxylic acid (2-[1,2,3]triazol-1-yl-ethyl)-amide]: the Emax at 30 µM in experiment [1] and in experiment [2] was 92% in each case.

On to `Nc1cccc(-c2cc(C(=O)NCCCn3ccnc3)no2)c1` [Derivative (119), 5-(3-amino-phenyl)-isoxazole-3-carboxylic acid (3-imidazol-1-yl-propyl)-amide], for which the Emax at 30 µM in experiment [1] is less than 20%. Moreover, the Emax at 120 µM in experiment [1] and in experiment [2] was 43% in each case.

For `O=C(NCCn1nccn1)c1cc(-c2ccc(F)cc2)on1` [Derivative (89), 5-(4-fluoro-phenyl)-isoxazole-3-carboxylic acid (2-[1,2,3]triazol-2-yl-ethyl)-amide], the Emax at 30 µM in experiment [1] and in experiment [2] was 132% in each case.

Take `O=C(NCCCn1ccnc1)c1cc(-c2ccccc2)on1` [Derivative (68), 5-phenyl-isoxazole-3-carboxylic acid (3-imidazol-1-yl-propyl)-amide]: the Emax at 30 µM in experiment [1] is 47%. Also, in experiment [2], the Emax at 60 µM turned out to be 486%.

`O=C(NCCCn1ncnn1)c1cc(-c2ccco2)on1` [Derivative (53), 5-furan-2-yl-isoxazole-3-carboxylic acid (3-tetrazol-2-yl-propyl)-amide]: the Emax at 30 µM in experiment [1] and in experiment [2] was less than 20% in each case.

For the compound `Cc1ccc(-c2cc(C(=O)NCCCn3ccnc3)no2)cc1` [Derivative (80), 5-p-tolyl-isoxazole-3-carboxylic acid (3-imidazol-1-yl-propyl)-amide], the Emax at 120 µM in experiment [1] and in experiment [2] was 58% in each case.

For `O=C(NCCc1ccccn1)c1cc(-c2ccccc2)on1` [Derivative (70), 5-phenyl-isoxazole-3-carboxylic acid (2-pyridin-2-yl-ethyl)-amide], the Emax at 60 µM in experiment [1] (Conc. 60 μM) worked out at 51%. Besides, the Emax at 120 µM in experiment [2] was 789%.

`O=C(NCCCn1cncn1)c1cc(-c2ccc(F)cc2)on1` [Derivative (84), 5-(4-fluoro-phenyl)-isoxazole-3-carboxylic acid (3-[1,2,4]triazol-1-yl-propyl)-amide]: the Emax at 30 µM in experiment [1] and in experiment [2] was 907% throughout.

For `O=C(NCc1ccncc1)c1cc(-c2ccco2)on1` [Derivative (9), 5-furan-2-yl-isoxazole-3-carboxylic acid (pyridin-4-ylmethyl)-amide], the Emax at 30 µM in experiment [1] and in experiment [2] was less than 20% in each case.

`O=C(NCCCn1ccnc1)c1noc(-c2ccco2)c1Cc1ccccc1` [Derivative (67), 4-benzyl-5-furan-2-yl-isoxazole-3-carboxylic acid (3-imidazol-1-yl-propyl)-amide]: the Emax at 30 µM in experiment [1] and in experiment [2] was less than 20% in each case.

`O=C(NCCCn1ccnn1)c1cc(-c2ccco2)on1` [Derivative (49), 5-furan-2-yl-isoxazole-3-carboxylic acid (3-[1,2,3]triazol-1-yl-propyl)-amide]: the Emax at 30 µM in experiment [1] and in experiment [2] was less than 20% in each case.

For the compound `O=C(NCCc1cccc(O)c1)c1cc(-c2ccco2)on1` [Derivative (23), 5-furan-2-yl-isoxazole-3-carboxylic acid [2-(3-hydroxy-phenyl)-ethyl]-amide], the Emax at 30 µM in experiment [1] and in experiment [2] was less than 20% throughout.

Regarding `O=C(O)c1cn(CCCNC(=O)c2cc(-c3ccco3)on2)cn1` [Derivative (59), 1-{3-[(5-furan-2-yl-isoxazole-3-carbonyl)-amino]-propyl}-1H-imidazole-4-carboxylic acid], in experiment [1], the Emax at 30 µM was less than 20%. The Emax at 60 µM in experiment [2] is 592%.

As for `O=C(NCCc1cccnc1)c1cc(-c2cccc(O)c2)on1` [Derivative (110), 5-(3-hydroxy-phenyl)-isoxazole-3-carboxylic acid (2-pyridin-3-yl-ethyl)-amide], the Emax at 30 µM in experiment [1] and in experiment [2] was less than 20% each time.

Take `O=C(O)c1ccc(CCNC(=O)c2cc(-c3ccco3)on2)cc1` [Derivative (32), 4-{2-[(5-furan-2-yl-isoxazole-3-carbonyl)-amino]-ethyl}-benzoic acid]: the Emax at 120 µM in experiment [1] came to 52%; in experiment [2] it was 789%.

With `O=C(NCCCn1ccnc1)c1cc(-c2ccccc2[N+](=O)[O-])on1` [Derivative (112), 5-(2-nitro-phenyl)-isoxazole-3-carboxylic acid (3-imidazol-1-yl-propyl)-amide], the Emax at 120 µM in experiment [1] and in experiment [2] was 51% throughout.

As to `O=C(NCc1ccccn1)c1cc(-c2ccco2)on1` [Derivative (7), 5-furan-2-yl-isoxazole-3-carboxylic acid (pyridin-2-ylmethyl)-amide], the Emax at 30 µM in experiment [1] and in experiment [2] was less than 20% throughout.

As to `Cc1cccc(-c2cc(C(=O)NCCCn3ccnc3)no2)c1` [Derivative (79), 5-m-tolyl-isoxazole-3-carboxylic acid (3-imidazol-1-yl-propyl)-amide], the Emax at 10 µM in experiment [1] (Conc. 10 μM) and in experiment [2] (Con. 10 μM) was 48% in each case.

As for `O=C(NCCc1ccc2c(c1)OCO2)c1cc(-c2ccco2)on1` [Derivative (29), 5-furan-2-yl-isoxazole-3-carboxylic acid (2-benzo[1,3]dioxol-5-yl-ethyl)-amide], the Emax at 30 µM in experiment [1] and in experiment [2] was less than 20% throughout.

In the case of `O=C(NCc1cccnc1)c1cc(-c2ccco2)on1` [Derivative (8), 5-furan-2-yl-isoxazole-3-carboxylic acid (pyridin-3-ylmethyl)-amide], the Emax at 30 µM in experiment [1] and in experiment [2] was less than 20% throughout.

Values taken from patent publication US7915297B2, “Isoxazole derivatives and use thereof” (SK Holdings Co., Ltd., priority 2005, dated 2011).
